# Laboratory results published in patent US20130217702A1 (Richter Gedeon Nyrt., priority 2010, published 2013).
# Tests used:
# [1] = biological target: T1, recombinant human B1 receptors (Homo sapiens, UniProt P46663); assay: Functional assay: antagonist potency by cytosolic calcium measurement (plate reader fluorimeter) in CHO-B1 cells, agonist LysDABK; format: cell-based; settings: CHO-B1 cells, inhibition of LysDABK (EC80)-evoked [Ca2+]i elevation; read-out: B1 func.
# T1 construct: host or cells: CHO (CHO-B1)
# T1 sequence (P46663 1-353): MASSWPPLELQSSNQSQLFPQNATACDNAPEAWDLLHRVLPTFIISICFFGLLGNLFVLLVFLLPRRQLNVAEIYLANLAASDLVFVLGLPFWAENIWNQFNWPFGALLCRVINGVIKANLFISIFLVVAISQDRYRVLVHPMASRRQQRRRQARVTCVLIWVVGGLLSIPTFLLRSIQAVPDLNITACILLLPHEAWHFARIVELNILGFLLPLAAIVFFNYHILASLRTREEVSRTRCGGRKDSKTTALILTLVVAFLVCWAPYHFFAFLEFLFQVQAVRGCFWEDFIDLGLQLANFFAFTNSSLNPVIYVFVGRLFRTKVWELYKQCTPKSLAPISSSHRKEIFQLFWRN
# Outline: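 IC50 is the concentration giving half-maximal inhibition of the LysDABK (EC80) calcium response, fitted from at least three experiments. CHO cells stably expressing human B1 were dye-loaded, exposed to compound for 20-25 min, then read by fluo-4 fluorescence (ΔF/F) at 37 °C.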
# [2] = biological target: T2, human recombinant bradykinin B1 receptor (Homo sapiens, UniProt P46663); assay: Human recombinant bradykinin B1 receptor competitive radioligand binding; settings: hB1 expressed in CHO cells, [3H]-[Des-Arg10] Kallidin radioligand; read-out: B1 binding
# T2 construct: host or cells: CHO cells, clone hB1-A5
# T2 sequence (P46663 1-353): T1 sequence (P46663 1-353)
# Outline: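 Membranes from CHO cells expressing hB1 (20 μg protein/tube) incubated 15 min at 25° C. with [3,4-prolyl-3,4-^3H(N)]-[Des-Arg^10] Kallidin; nonspecific binding defined with 10 μM Lys-des-Arg^9-Bradykinin. Bound label collected by filtration and counted. IC50 from ≥7-point curves in triplicate; Ki by Cheng-Prusoff.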
smiles,measurement,setting,value
"Cc1nc(-c2c(Cl)c3ccccc3n2-c2ccc(CNC(=O)C3(NC(=O)c4ccc(F)c(C(F)(F)F)c4)CC3)cc2)no1 [Example 98, N-(1-{4-[3-Chloro-2-(5-methyl-[1,2,4]oxadiazol-3-yl)-indol-1-yl]-benzylcarbamoyl}-cyclopropyl)-4-fluoro-3-trifluoromethyl-benzamide]",IC50,[1],20 to 100 nM
same,Ki,[2],< 20 nM
"Cc1nc(-c2c(Cl)c3ccccc3n2-c2ccc(CNC(=O)C3(NC(=O)c4ccc(F)nc4)CC3)cc2)no1 [Example 99, N-(1-{4-[3-Chloro-2-(5-methyl-[1,2,4]oxadiazol-3-yl)-indol-1-yl]-benzylcarbamoyl}-cyclopropyl)-6-fluoro-nicotinamide]",IC50,[1],< 20 nM
same,Ki,[2],< 20 nM
"N#Cc1cc2cc(Cl)ccc2n1-c1ccc(CNC(=O)C2(NC(=O)c3cncc(C(F)(F)F)c3)CC2)cc1 [Example 100, N-{1-[4-(5-Chloro-2-cyano-indol-1-yl)-benzylcarbamoyl]-cyclopropyl}-5-trifluoromethyl-nicotinamide]",IC50,[1],< 20 nM
same,Ki,[2],< 20 nM
"Cc1noc(-c2cc3cc(F)ccc3n2-c2ccc(CNC(=O)C3(NC(=O)CC(F)(F)F)CC3)cc2)n1 [Example 101, 1-(3,3,3-Trifluoro-propionylamino)-cyclopropanecarboxylic acid 4-[5-fluoro-2-(3-methyl-[1,2,4]oxadiazol-5-yl)-indol-1-yl]-benzylamide]",IC50,[1],< 20 nM
same,Ki,[2],< 20 nM
"Cc1noc(-c2cc3cc(F)ccc3n2-c2ccc(CNC(=O)C3(NC(=O)c4cncc(C(F)(F)F)c4)CC3)cc2)n1 [Example 102, N-(1-{4-[5-Fluoro-2-(3-methyl-[1,2,4]oxadiazol-5-yl)-indol-1-yl]-benzylcarbamoyl}-cyclopropyl)-5-trifluoromethyl-nicotinamide]",IC50,[1],< 20 nM
same,Ki,[2],< 20 nM
"COc1cc(C(=O)NC2(C(=O)NCc3ccc(-n4c(-c5nc(C)no5)cc5cc(F)ccc54)cc3)CC2)on1 [Example 103, 3-Methoxy-isoxazole-5-carboxylic acid (1-{4-[5-fluoro-2-(3-methyl-[1,2,4]oxadiazol-5-yl)-indol-1-yl]-benzylcarbamoyl}-cyclopropyl)-amide]",IC50,[1],< 20 nM
same,Ki,[2],< 20 nM
"Cc1nc(-c2c(Cl)c3ccccc3n2-c2ccc(CNC(=O)C3(NC(=O)c4cccnc4Cl)CC3)c(F)c2)no1 [Example 104, 2-Chloro-N-(1-{4-[3-chloro-2-(5-methyl-[1,2,4]oxadiazol-3-yl)-indol-1-yl]-2-fluoro-benzylcarbamoyl}-cyclopropyl)-nicotinamide]",IC50,[1],< 20 nM
same,Ki,[2],< 20 nM
"Cc1nc(-c2c(Cl)c3ccccc3n2-c2ccc(CNC(=O)C3(NC(=O)c4cccc(F)c4)CC3)c(F)c2)no1 [Example 105, N-(1-{4-[3-Chloro-2-(5-methyl-[1,2,4]oxadiazol-3-yl)-indol-1-yl]-2-fluoro-benzylcarbamoyl}-cyclopropyl)-3-fluoro-benzamide]",IC50,[1],< 20 nM
same,Ki,[2],< 20 nM
"Cc1cnc(C(=O)NC2(C(=O)NCc3ccc(-n4c(-c5noc(C)n5)c(Cl)c5ccccc54)cc3F)CC2)cn1 [Example 106, 5-Methyl-pyrazine-2-carboxylic acid (1-{4-[3-chloro-2-(5-methyl-[1,2,4]oxadiazol-3-yl)-indol-1-yl]-2-fluoro-benzylcarbamoyl}-cyclopropyl)-amide]",IC50,[1],< 20 nM
same,Ki,[2],< 20 nM
"Cc1cc(C(=O)NC2(C(=O)NCc3ccc(-n4c(-c5noc(C)n5)c(Cl)c5ccccc54)cc3F)CC2)no1 [Example 107, 5-Methyl-isoxazole-3-carboxylic acid (1-{4-[3-chloro-2-(5-methyl-[1,2,4]oxadiazol-3-yl)-indol-1-yl]-2-fluoro-benzylcarbamoyl}-cyclopropyl)-amide]",IC50,[1],< 20 nM
same,Ki,[2],< 20 nM
"Cc1nc(-c2c(Cl)c3ccccc3n2-c2ccc(CNC(=O)C3(NC(=O)CC(F)(F)F)CC3)c(F)c2)no1 [Example 108, 1-(3,3,3-Trifluoro-propionylamino)-cyclopropanecarboxylic acid 4-[3-chloro-2-(5-methyl-[1,2,4]oxadiazol-3-yl)-indol-1-yl]-2-fluoro-benzylamide]",IC50,[1],< 20 nM
same,Ki,[2],< 20 nM
"Cc1nc(-c2c(Cl)c3ccccc3n2-c2ccc(CNC(=O)C3(NC(=O)c4ccnc(F)c4)CC3)c(F)c2)no1 [Example 109, N-(1-{4-[3-Chloro-2-(5-methyl-[1,2,4]oxadiazol-3-yl)-indol-1-yl]-2-fluoro-benzylcarbamoyl}-cyclopropyl)-2-fluoro-isonicotinamide]",IC50,[1],< 20 nM
same,Ki,[2],< 20 nM
"Cc1nc(-c2c(Cl)c3ccccc3n2-c2ccc(CNC(=O)C3(NC(=O)c4cc(C5CC5)on4)CC3)c(F)c2)no1 [Example 110, 5-Cyclopropyl-isoxazole-3-carboxylic acid (1-{4-[3-chloro-2-(5-methyl-[1,2,4]oxadiazol-3-yl)-indol-1-yl]-2-fluoro-benzylcarbamoyl}-cyclopropyl)-amide]",IC50,[1],< 20 nM
same,Ki,[2],< 20 nM
"Cc1nc(-c2c(Cl)c3ccccc3n2-c2ccc(CNC(=O)C3(NC(=O)c4cncc(C(F)(F)F)c4)CC3)c(F)c2)no1 [Example 111, N-(1-{4-[3-Chloro-2-(5-methyl-[1,2,4]oxadiazol-3-yl)-indol-1-yl]-2-fluoro-benzylcarbamoyl}-cyclopropyl)-5-trifluoromethyl-nicotinamide]",IC50,[1],< 20 nM
same,Ki,[2],< 20 nM
"Cc1noc(-c2c(Cl)c3ccccc3n2-c2ccc(CNC(=O)C3(NC(=O)CC(F)(F)F)CC3)cc2)n1 [Example 112, 1-(3,3,3-Trifluoro-propionylamino)-cyclopropanecarboxylic acid 4-[3-chloro-2-(3-methyl-[1,2,4]oxadiazol-5-yl)-indol-1-yl]-benzylamide]",IC50,[1],< 20 nM
same,Ki,[2],< 20 nM
"Cc1noc(-c2c(Cl)c3ccccc3n2-c2ccc(CNC(=O)C3(NC(=O)c4ccnc(F)c4)CC3)cc2)n1 [Example 113, N-(1-{4-[3-Chloro-2-(3-methyl-[1,2,4]oxadiazol-5-yl)-indol-1-yl]-benzylcarbamoyl}-cyclopropyl)-2-fluoro-isonicotinamide]",IC50,[1],< 20 nM
same,Ki,[2],< 20 nM
"Cc1noc(-c2c(Cl)c3ccccc3n2-c2ccc(CNC(=O)C3(NC(=O)c4cc(C5CC5)on4)CC3)cc2)n1 [Example 114, 5-Cyclopropyl-isoxazole-3-carboxylic acid (1-{4-[3-chloro-2-(3-methyl-[1,2,4]oxadiazol-5-yl)-indol-1-yl]-benzylcarbamoyl}-cyclopropyl)-amide]",IC50,[1],< 20 nM
same,Ki,[2],< 20 nM
"Cc1noc(-c2c(Cl)c3ccccc3n2-c2ccc(CNC(=O)C3(NC(=O)c4cncc(C(F)(F)F)c4)CC3)cc2)n1 [Example 115, N-(1-{4-[3-Chloro-2-(3-methyl-[1,2,4]oxadiazol-5-yl)-indol-1-yl]-benzylcarbamoyl}-cyclopropyl)-5-trifluoromethyl-nicotinamide]",IC50,[1],< 20 nM
same,Ki,[2],< 20 nM
"COc1ccc2c(c1)cc(-c1nc(C)no1)n2-c1ccc(CNC(=O)C2(NC(=O)c3cccnc3F)CC2)cc1 [Example 116, 2-Fluoro-N-(1-{4-[5-methoxy-2-(3-methyl-[1,2,4]oxadiazol-5-yl)-indol-1-yl]-benzylcarbamoyl}-cyclopropyl)-nicotinamide]",IC50,[1],20 to 100 nM
same,Ki,[2],20 to 100 nM
"Cc1nc(-c2c(Cl)c3cc(F)ccc3n2-c2ccc(CNC(=O)C3(NC(=O)c4cccnc4F)CC3)cc2)no1 [Example 117, N-(1-{4-[3-Chloro-5-fluoro-2-(5-methyl-[1,2,4]oxadiazol-3-yl)-indol-1-yl]-benzylcarbamoyl}-cyclopropyl)-2-fluoro-nicotinamide]",IC50,[1],< 20 nM
same,Ki,[2],< 20 nM
"COc1ccc2c(c1)c(Cl)c(-c1nc(C)no1)n2-c1ccc(CNC(=O)C2(NC(=O)c3cccnc3F)CC2)cc1 [Example 118, N-(1-{4-[3-Chloro-5-methoxy-2-(3-methyl-[1,2,4]oxadiazol-5-yl)-indol-1-yl]-benzylcarbamoyl}-cyclopropyl)-2-fluoro-nicotinamide]",IC50,[1],< 20 nM
same,Ki,[2],< 20 nM
"Cn1nnc(-c2c(Cl)c3ccccc3n2-c2ccc(CNC(=O)C3(NC(=O)c4cccnc4F)CC3)cc2)n1 [Example 119, N-(1-{4-[3-Chloro-2-(2-methyl-2H-tetrazol-5-yl)-indol-1-yl]-benzylcarbamoyl}-cyclopropyl)-2-fluoro-nicotinamide]",IC50,[1],< 20 nM
same,Ki,[2],< 20 nM
"Cc1nc(-c2cc3cc(F)ccc3n2-c2ccc(CNC(=O)C3(NC(=O)c4cccnc4F)CC3)cc2)no1 [Example 120, 2-Fluoro-N-(1-{4-[5-fluoro-2-(5-methyl-[1,2,4]oxadiazol-3-yl)-indol-1-yl]-benzylcarbamoyl}-cyclopropyl)-nicotinamide]",IC50,[1],< 20 nM
same,Ki,[2],< 20 nM
"Cc1nc(-c2c(Cl)c3ccccc3n2-c2ccc(CNC(=O)C3(NC(=O)c4cnn(C)c4)CC3)cc2)no1 [Example 121, 1-Methyl-1H-pyrazole-4-carboxylic acid (1-{4-[3-chloro-2-(5-methyl-[1,2,4]oxadiazol-3-yl)-indol-1-yl]-benzylcarbamoyl}-cyclopropyl)-amide]",IC50,[1],20 to 100 nM
same,Ki,[2],< 20 nM
